Results from patent publication US20200138825A1, “METHOD OF TREATING MALIGNANT RHABDOID TUMOR OF THE OVARY (MRTO)/SMALL CELL CANCER OF THE OVARY OF THE HYPERCALCEMIC TYPE(SCCOHT) WITH AN EZH2 INHIBITOR” (Epizyme, Inc., priority 2015, published 2020).
“And” between values parts separate entries of the source, which are not always exact repeats. Equal entries are not always repeated. “Also recorded” adds a separate entry of the source. Marks after values point to notes of the source that are not given here.

Columns and labels:
[1] = tested on: INI1-negative malignant rhabdoid tumor; assay: Phase 1 clinical activity, INI1-negative malignant rhabdoid tumor; format: in vivo, human; details: for Best Response / Time on study: INI1-negative malignant rhabdoid tumor
Experimental: (§1) Table 2 describes a Phase 1 clinical trial design (sponsor protocol no.: E7438-G000-001, ClinicalTrials.gov identifier: NCT01897571). The study population included subjects with relapsed or refractory solid tumors or B-cell lymphoma. Subjects received a 3+3 dose-escalation in expansion cohorts receiving 800 mg BID and 1600 mg BID, respectively, or a cohort for ascertaining the effect of food on dosing at 400 mg BID. The primary endpoint was a determination of recommended phase II dose (RP2D)/maximum tolerated dose (MTD). Secondary endpoints included safety, pharmacokinetics (PK), pharmacodynamics (PD) and tumor response, assessed every 8 wks.

[2] = tested on: SMARCA4-negative thoracic sarcoma; assay: Phase 1 clinical activity, SMARCA4-negative thoracic sarcoma; format: in vivo, human; details: 1600 mg BID
Experimental: as §1

MRT and MRTO/SCCOHT = assay: Assessment of clinical activity in MRT and MRTO/SCCOHT; format: in vivo, human; details: MRT and MRTO/SCCOHT following treatment
[3] = tested on: H3K27me3 in INI1- and SMARCA4-negative tumors; assay: Pharmacodynamic H3K27me3 inhibition in tumor tissue of patients; format: in vivo, human
Bin-67 xenograft tumors = assay: SCCOHT xenograft model (Bin-67); format: in vivo
Experimental: EZH2 target inhibition was assessed by H3K27me3 levels in xenograft tissue collected on day 18 (FIG. 18B). Each point represents the ratio of H3K27me3 to total H3 from the tumor of a single animal.

TOV112D xenograft tumors = assay: SCCOHT xenograft model (TOV112D); format: in vivo
Experimental: EZH2 target inhibition was measured by H3K27me3 levels in xenograft tissue collected on day 14 (FIG. 20B). Each point represents the ratio of H3K27me3 to total H3 from the tumor of a single animal.

Oral bioavailability = details: in vivo
[4] = human, in vivo
Experimental: as §1

[5] = tested on: Dual SMARCA2 and SMARCA4 deficient ovarian cell lines; details: four SMARCA2-deficient and SMARCA4-deficient cell lines
COV434 xenograft tumors = assay: SCCOHT xenograft model (COV434); format: in vivo
Experimental: After day 28, a portion of the COV434 xenograft cohort were retained to monitor for tumor regrowth while under no treatment, of which there was none. EZH2 target inhibition was assessed by H3K27me3 levels in xenograft tissue collected on day 28 (FIG. 19B). Each point represents the ratio of H3K27me3 to total H3 from the tumor of a single animal.

[6] = tested on: JHOC-5, TYKNU, PA-1, OAW42, ES-2, COV362 cell lines; assay: Long-term proliferation assays, single-deficient or WT ovarian cell lines; format: cell-based
[7] = tested on: INI1-negative epithelioid sarcoma; assay: Phase 1 clinical activity, INI1-negative epithelioid sarcoma; format: in vivo, human
Experimental: as §1

[8] = tested on: SMARCA4-negative malignant rhabdoid tumor of ovary (SCCOHT); assay: Phase 1 clinical activity, SMARCA4-negative malignant rhabdoid tumor of ovary (SCCOHT); format: in vivo, human; details: for Tumor size: person, 1600 mg BID oral tablet
Experimental: as §1

[9] = tested on: cell lines and xenografts deficient in INI1 (SNF5/SMARCB1); details: Knutson et al. PNAS 2013; cited from earlier work
[10] = 800 mg BID, + = remains on study

CCN(c1cc(-c2ccc(CN3CCOCC3)cc2)cc(C(=O)NCc2c(C)cc(C)[nH]c2=O)c1C)C1CCOCC1 [tazemetostat]
Best Response ([1]; 400 mg BID): SD week 8 | Time on study ([1]; 400 mg BID, + = remains on study): 12+ weeks | Best Response ([1]; 800 mg BID): complete remission (CR); also recorded: CR week 8*; also recorded: PD week 8 | Time on study [1, 10]: 65+ weeks and 35 weeks | Time on study ([1]; 1600 mg BID): 16 weeks and 17 weeks | response ([1]; patient with INI1-negative (IHC) relapsed malignant rhabdoid tumor, Phase 1): complete response | Best Response [2]: PD week 5 | Time on study [2]: 6 weeks | clinical activity (MRT and MRTO/SCCOHT): stable disease for at least six months, partial remission or complete remission | pharmacodynamics inhibition of HeK27me3 in tumor tissue [3]: induces pharmacodynamics inhibition of HeK27me3 | tumor volume compared to vehicle (Bin-67 xenograft tumors; after 18 days): statistically significant differences in volume compared to vehicle | H3K27me3 in xenograft tumors (Bin-67 xenograft tumors; after 18 days of treatment): reduction of H3K27me3 | tumor volume compared to vehicle (TOV112D xenograft tumors; 14 days, twice daily): statistically significant differences in volume compared to vehicle | H3K27me3 in xenograft tumors (TOV112D xenograft tumors; after 14 days of treatment): reduction of H3K27me3 | oral bioavailability (Oral bioavailability): orally bioavailable | antitumor activity (G401 xenograft): antitumor activity | Anemia, All Events, All Grades [4]: 7 | Anemia, All Events, Grade n [4]: 1 | Anemia, All Treatment-Related, All Grades [4]: 3 | Anemia, All Treatment-Related, Grade n [4]: 0 | Asthenia, All Events, All Grades [4]: 28 | Asthenia, All Events, Grade n [4]: 1 | Asthenia, All Treatment-Related, All Grades [4]: 12 | Asthenia, All Treatment-Related, Grade n [4]: 0 | Constipation, All Events, All Grades [4]: 7 | Constipation, All Events, Grade n [4]: 0 | Constipation, All Treatment-Related, All Grades [4]: 2 | Constipation, All Treatment-Related, Grade n [4]: 0 | Decreased appetite, All Events, All Grades [4]: 11 | Decreased appetite, All Events, Grade n [4]: 3 | Decreased appetite, All Treatment-Related, All Grades [4]: 3 | Decreased appetite, All Treatment-Related, Grade n [4]: 1 | Dysgeusia, All Events, All Grades [4]: 5 | Dysgeusia, All Events, Grade n [4]: 0 | Dysgeusia, All Treatment-Related, All Grades [4]: 5 | Dysgeusia, All Treatment-Related, Grade n [4]: 0 | Dyspnea, All Events, All Grades [4]: 8 | Dyspnea, All Events, Grade n [4]: 0 | Dyspnea, All Treatment-Related, All Grades [4]: 0 | Dyspnea, All Treatment-Related, Grade n [4]: 0 | Elevated LFTs, All Events, All Grades [4]: 2 | Elevated LFTs, All Events, Grade n [4]: 1 | Elevated LFTs, All Treatment-Related, All Grades [4]: 0 | Elevated LFTs, All Treatment-Related, Grade n [4]: 1 | Hypertension, All Events, All Grades [4]: 3 | Hypertension, All Events, Grade n [4]: 1 | Hypertension, All Treatment-Related, All Grades [4]: 1 | Hypertension, All Treatment-Related, Grade n [4]: 1 | Muscle Spasms, All Events, All Grades [4]: 5 | Muscle Spasms, All Events, Grade n [4]: 0 | Muscle Spasms, All Treatment-Related, All Grades [4]: 2 | Muscle Spasms, All Treatment-Related, Grade n [4]: 0 | Nausea, All Events, All Grades [4]: 8 | Nausea, All Events, Grade n [4]: 0 | Nausea, All Treatment-Related, All Grades [4]: 7 | Nausea, All Treatment-Related, Grade n [4]: 0 | Neutropenia, All Events, All Grades [4]: 2 | Neutropenia, All Events, Grade n [4]: 1 | Neutropenia, All Treatment-Related, All Grades [4]: 1 | Neutropenia, All Treatment-Related, Grade n [4]: 1 | Thrombocytopenia, All Events, All Grades [4]: 10 | Thrombocytopenia, All Events, Grade n [4]: 2 | Thrombocytopenia, All Treatment-Related, All Grades [4]: 6 | Thrombocytopenia, All Treatment-Related, Grade n [4]: 1 | Vomiting, All Events, All Grades [4]: 6 | Vomiting, All Events, Grade n [4]: 0 | Vomiting, All Treatment-Related, All Grades [4]: 3 | Vomiting, All Treatment-Related, Grade n [4]: 0 | inhibition of cell growth [5]: Dose-dependent inhibition of cell growth | tumor volume compared to vehicle (COV434 xenograft tumors; after 28 days): statistically significant differences in volume compared to vehicle | tumor regrowth while under no treatment (COV434 xenograft tumors; after day 28): none | sensitivity [6]: Lower sensitivity | Best Response ([7]; 400 mg BID): PD week 8 | Time on study ([7]; 400 mg BID): 11 weeks | Best Response ([7]; 800 mg BID): partial remission (PR); also recorded: PR week 8; also recorded: SD week 8 | Time on study [7, 10]: 25+ weeks and 24+ weeks | clinical activity ([8]; Phase 1, two patients with SCCOHT (SMARCA4-negative)): Clinical activity was observed | Best Response ([8]; SMARCA4-negative SCCOHT, 1600 mg BID): PR week 8*; also recorded: SD week 8 | Time on study ([8]; SMARCA4-negative SCCOHT, 1600 mg BID, + = remains on study): 25+ weeks and 26+ weeks | Tumor size ([8]; after 8 weeks): decreased from baseline | Tumor size ([8]; after 16 weeks): further decreased from the 8 week measurement | sensitivity of INI1-deficient cell lines and xenografts [9]: profound sensitivity and durable regressions
